Assay [1] deals with ACTH-induced corticosterone secretion. Put plainly: Suppressive action of ACTH-induced corticosterone secretion in mice. In kind it is in vivo. Particulars: 10 mg/kg, p.o.; male ICR mice; ACTH (1-24) 100 µg/kg subcutaneously 1 hr later; AUC up to 2 hr after ACTH administration. As to the method: Experimental Example 2: Suppressive action of ACTH-induced corticosterone secretion in mice
Nine-week-old male ICR mice (CHARLES RIVER LABORATORIES JAPAN, INC.) were used in the test.
The mice were assigned to each group based on body weight, with 5 mice per group. Test compounds were suspended in 0.5% (w/v) methylcellulose solution. ACTH (1-24) (A0948, LKT Laboratories, Inc.) was dissolved in saline. The test compound (10 mg/kg) or vehicle was orally administered to mice, and 1 hr later, ACTH solution (100 µg/kg) was administered subcutaneously. Blood was collected from the tail vein before ACTH administration and 0.5, 1, and 2 hr after administration, and corticosterone concentration in plasma was measured using an ELISA kit (EC3001-1, Assaypro). Using the plasma corticosterone concentration at each time point, the area under the blood concentration-time curve up to 2 hr after administration (AUC0-2h) was calculated.

The target of the next assay is T1, human MC2R (Homo sapiens, UniProt Q01718).
T1 construct: host or cells: GeneBLAzer MC2R-CRE-bla CHO-K1 cells
Put plainly: Measurement of human MC2R inhibitory activity using intracellular cAMP concentration as an indicator. Format: cell-based. Particulars: test compound at 1 µM; GeneBLAzer MC2R-CRE-bla CHO-K1 cells; ACTH (Human 1-24) final concentration 3 pM; intracellular cAMP by HTRF; read-out: MC2R inhibition rate (% of inhibition). The method in brief: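 MC2R-CRE-bla CHO-K1 cells at 1,500/well in HBSS with 10 mM HEPES pH 7.5, 0.01% BSA and 500 µM IBMX, preincubated 20 min with compound, then stimulated with 3 pM ACTH(1-24) for 30 min at room temperature. cAMP read by HTRF; % inhibition from the ACTH-stimulated and unstimulated windows.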
Background: TR-FRET usually uses a lanthanide donor and a delayed reading to cut background.

The source of these data is patent EP4714953A1, “MELANOCORTIN 2-TYPE RECEPTOR ANTAGONIST” (Scohia Pharma, Inc., priority 2023, dated 2024).

T1 sequence (Q01718 whole entry): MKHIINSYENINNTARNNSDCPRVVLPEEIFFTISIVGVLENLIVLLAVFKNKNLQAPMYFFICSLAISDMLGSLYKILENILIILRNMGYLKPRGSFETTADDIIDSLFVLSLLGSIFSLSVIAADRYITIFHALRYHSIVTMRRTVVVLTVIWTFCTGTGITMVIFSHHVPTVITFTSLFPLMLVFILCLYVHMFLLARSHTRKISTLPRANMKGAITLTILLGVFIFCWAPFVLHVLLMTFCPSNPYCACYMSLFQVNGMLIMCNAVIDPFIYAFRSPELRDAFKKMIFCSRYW
T1 sequence (Q8TCY5 whole entry partner): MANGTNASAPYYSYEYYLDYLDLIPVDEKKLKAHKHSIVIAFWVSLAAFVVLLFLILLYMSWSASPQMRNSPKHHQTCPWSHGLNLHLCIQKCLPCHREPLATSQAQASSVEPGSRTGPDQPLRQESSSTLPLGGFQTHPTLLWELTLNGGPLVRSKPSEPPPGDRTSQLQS

Regarding `CCOc1ncccc1-c1ccc(N2C[C@H]3CN(c4ccc(Cl)cc4C(F)(F)F)C(=O)N3C[C@H]2CC)c(C(=O)NCC2(O)COC2)n1` [Example 30, 3-[(6R,8aS)-2-[4-chloro-2-(trifluoromethyl)phenyl]-6-ethyl-3-oxo-5,6,8,8a-tetrahydro-1H-imidazo[1,5-a]pyrazin-7-yl]-6-(2-ethoxypyridin-3-yl)-N-[(3-hydroxyoxetan-3-yl)methyl]pyridine-2-carboxamide], the “plasma corticosterone AUC0-2h (% of vehicle, mean±S.D.)” value in assay [1] is reported as 8.6 ± 2.4 % of vehicle. Besides, the inhibition (as a rule, the percentage by which the read-out fell short of the control) at 1 µM at human MC2R came out at 100%.

Take `CCOc1ncccc1-c1ccc(N2C[C@H]3CN(c4ccc(Cl)cc4C(F)(F)F)C(=O)N3C[C@H]2CC)c(C(=O)N[C@@H]2CCNC2)n1` [Example 31, 3-[(6R,8aS)-2-[4-chloro-2-(trifluoromethyl)phenyl]-6-ethyl-3-oxo-5,6,8,8a-tetrahydro-1H-imidazo[1,5-a]pyrazin-7-yl]-6-(2-ethoxypyridin-3-yl)-N-[(3R)-pyrrolidin-3-yl]pyridine-2-carboxamide]: the “plasma corticosterone AUC0-2h (% of vehicle, mean±S.D.)” value in assay [1] is on record as 61.1 ± 7.3 % of vehicle. The inhibition at 1 µM on human MC2R came out at 100%.

On to `CCOc1ncccc1-c1ccc(N2C[C@H]3CN(c4ccc(Cl)cc4C(F)(F)F)C(=O)N3C[C@H]2CC)c(C(=O)NC[C@H](C)O)n1` [Example 34, 3-[(6R,8aS)-2-[4-chloro-2-(trifluoromethyl)phenyl]-6-ethyl-3-oxo-5,6,8,8a-tetrahydro-1H-imidazo[1,5-a]pyrazin-7-yl]-6-(2-ethoxypyridin-3-yl)-N-[(2S)-2-hydroxypropyl]pyridine-2-carboxamide], for which the “plasma corticosterone AUC0-2h (% of vehicle, mean±S.D.)” value in assay [1] is reported as 15.6 ± 4.9 % of vehicle. For the same compound, the inhibition at 1 µM at human MC2R amounted to 96%.

With `CCOc1ncccc1-c1ccc(N2C[C@H]3CN(c4ccc(Cl)cc4C(F)(F)F)C(=O)N3C[C@H]2CC)c(C(=O)NCC(=O)NC)n1` [Example 37, 3-[(6R,8aS)-2-[4-chloro-2-(trifluoromethyl)phenyl]-6-ethyl-3-oxo-5,6,8,8a-tetrahydro-1H-imidazo[1,5-a]pyrazin-7-yl]-6-(2-ethoxypyridin-3-yl)-N-[2-(methylamino)-2-oxoethyl]pyridine-2-carboxamide], the “plasma corticosterone AUC0-2h (% of vehicle, mean±S.D.)” value in assay [1] is 14.0 ± 1.8 % of vehicle. Moreover, the inhibition at 1 µM at human MC2R was 100%.

Regarding `CCOc1ncccc1-c1ccc(N2C[C@H]3CN(c4ccc(Cl)cc4C(F)(F)F)C(=O)N3C[C@H]2CC)c(C(=O)N[C@H]2CNC(=O)C2)n1` [Example 38, 3-[(6R,8aS)-2-[4-chloro-2-(trifluoromethyl)phenyl]-6-ethyl-3-oxo-5,6,8,8a-tetrahydro-1H-imidazo[1,5-a]pyrazin-7-yl]-6-(2-ethoxypyridin-3-yl)-N-[(3R)-5-oxopyrrolidin-3-yl]pyridine-2-carboxamide], in assay [1], the “plasma corticosterone AUC0-2h (% of vehicle, mean±S.D.)” value is 14.2 ± 4.3 % of vehicle. For the same compound, the inhibition at 1 µM at human MC2R came to 100%.

In the case of `CCOc1ncccc1-c1ccc(N2C[C@H]3CN(c4ccc(Cl)cc4C(F)(F)F)C(=O)N3C[C@H]2CC)c(C(=O)N[C@@H]2CCNC2=O)n1` [Example 47, 3-[(6R,8aS)-2-[4-chloro-2-(trifluoromethyl)phenyl]-6-ethyl-3-oxo-5,6,8,8a-tetrahydro-1H-imidazo[1,5-a]pyrazin-7-yl]-6-(2-ethoxypyridin-3-yl)-N-[(3R)-2-oxopyrrolidin-3-yl]pyridine-2-carboxamide], the “plasma corticosterone AUC0-2h (% of vehicle, mean±S.D.)” value in assay [1] is listed as 17.5 ± 4.4 % of vehicle. Also, the inhibition at 1 µM on human MC2R worked out at 100%.

For the compound `CCOc1ncccc1-c1ccc(N2C[C@H]3CN(c4ccc(Cl)cc4C(F)(F)F)C(=O)N3C[C@H]2CC)c(C(=O)N[C@@H]2CC(=O)N(C)C2)n1` [Example 49, 3-[(6R,8aS)-2-[4-chloro-2-(trifluoromethyl)phenyl]-6-ethyl-3-oxo-5,6,8,8a-tetrahydro-1H-imidazo[1,5-a]pyrazin-7-yl]-6-(2-ethoxypyridin-3-yl)-N-[(3R)-1-methyl-5-oxopyrrolidin-3-yl]pyridine-2-carboxamide], the “plasma corticosterone AUC0-2h (% of vehicle, mean±S.D.)” value in assay [1] is recorded as 7.7 ± 2.5 % of vehicle. The inhibition at 1 µM at human MC2R came out at 100%.
